Results taken from patent US9845297B2, “Antimicrobial compounds and methods of making and using the same” (Melinta Therapeutics, Inc., priority 2009, dated 2017).

test system: Eschericia coli strain ATCC25922; assay: standard microdilution assay to determine minimum inhibitory concentrations (MICs); type: cell-based; conditions: Escherichia coli, ATCC25922, Eschericia coli strain ATCC25922, standard microdilution assay; read-out: E. coli ATCC25922 MIC
Summary of the method: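 Broth microdilution per CLSI protocols, typically 100 µL final volume, against E. coli ATCC25922. MIC values scored as +/− against a cutoff of 16 micrograms/ml.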

Structure (SMILES) | MIC [µg/mL]
NCCCN(Cc1ccc(-c2c[nH]c(NC(=O)Nc3cc(F)c(F)cc3F)nc2=O)cc1)CC1CC1 [Compound 344] | < 16
Cn1ccnc1CN(CCCN)Cc1ccc(-c2c[nH]c(NC(=O)Nc3ccccc3OC(F)(F)F)nc2=O)cc1 [Compound 345] | > 16
CN(CCCNCc1ccc(-c2c[nH]c(NC(=O)Nc3ccccc3OC(F)(F)F)nc2=O)cc1)C(=N)N [Compound 346] | < 16
NCCCN(CCc1ccncc1)Cc1ccc(-c2c[nH]c(NC(=O)Nc3ccccc3OC(F)(F)F)nc2=O)cc1 [Compound 347] | > 16
N=C(N)NCCCN(CCCN)Cc1ccc(-c2c[nH]c(NC(=O)Nc3cc(F)c(F)cc3F)nc2=O)cc1 [Compound 348] | > 16
N=C(N)NCCCN(CCCN)Cc1ccc(-c2c[nH]c(NC(=O)Nc3ccccc3OC(F)(F)F)nc2=O)cc1 [Compound 349] | < 16
N=C(N)NCCCNCc1ccc(-c2c[nH]c(NC(=O)Nc3cc(F)c(F)cc3F)nc2=O)cc1 [Compound 350] | < 16
NCCCN(CCCN)Cc1ccc(-c2c[nH]c(Nc3nc4ccccc4[nH]3)nc2=O)cc1F [Compound 351] | < 16
CN(CCCNCc1ccc(-c2c[nH]c(NC(=O)Nc3cc(F)c(F)cc3F)nc2=O)cc1)C(=N)N [Compound 353] | > 16
NCCCN(CCc1ccncc1)Cc1ccc(-c2c[nH]c(NC(=O)Nc3cc(F)c(F)cc3F)nc2=O)cc1 [Compound 354] | > 16
NCCCN(CCCCO)Cc1ccc(-c2c[nH]c(NC(=O)Nc3ccccc3OC(F)(F)F)nc2=O)cc1 [Compound 355] | < 16
NCCCN(CCCN)Cc1ccc(-c2c[nH]c(Nc3nc4cc(F)c(F)cc4o3)nc2=O)cc1F [Compound 356] | < 16
NCCCN(CCCN)Cc1ccc(-c2c[nH]c(Nc3nc4cc(C(F)(F)F)ccc4s3)nc2=O)cc1F [Compound 357] | > 16
NCCCN(CCCC(=O)O)Cc1ccc(-c2c[nH]c(NC(=O)Nc3cc(F)c(F)cc3F)nc2=O)cc1 [Compound 358] | > 16
NCCCN(CCCC(=O)O)Cc1ccc(-c2c[nH]c(NC(=O)Nc3ccccc3OC(F)(F)F)nc2=O)cc1 [Compound 359] | > 16
COc1ccc2nc(Nc3nc(=O)c(-c4ccc(CN(CCCN)CCCN)c(F)c4)c[nH]3)[nH]c2c1 [Compound 361] | < 16
NCCCN(CCCN)Cc1ccc(-c2c[nH]c(Nc3nc4ccccc4o3)nc2=O)cc1F [Compound 363] | > 16
O=C(Nc1nc(=O)c(-c2ccc(CNCCCc3cccnc3)cc2)c[nH]1)Nc1ccccc1OC(F)(F)F [Compound 364] | > 16
CN(CCCN(CCCN)Cc1ccc(-c2c[nH]c(NC(=O)Nc3ccccc3OC(F)(F)F)nc2=O)cc1)C(=N)N [Compound 365] | < 16
CN(CCCN(CCCN)Cc1ccc(-c2c[nH]c(NC(=O)Nc3cc(F)c(F)cc3F)nc2=O)cc1)C(=N)N [Compound 366] | > 16
O=C(Nc1nc(=O)c(CCN2CCNCC2)c[nH]1)Nc1ccccc1OC(F)(F)F [Compound 368] | > 16
NCCCN1CCN(CCc2c[nH]c(NC(=O)Nc3ccccc3OC(F)(F)F)nc2=O)CC1 [Compound 369] | > 16
COc1cc2nc(Nc3nc(=O)c(-c4ccc(CN(CCCN)CCCN)c(F)c4)c[nH]3)[nH]c2cc1OC [Compound 370] | > 16
NCCCN(CCCc1cccnc1)Cc1ccc(-c2c[nH]c(NC(=O)Nc3ccccc3OC(F)(F)F)nc2=O)cc1 [Compound 372] | > 16

Structure (SMILES) | MIC [µg/mL]
O=C(Nc1nc(=O)c(-c2ccc(CNCCCc3cccnc3)cc2)c[nH]1)Nc1cc(F)c(F)cc1F [Compound 373] | > 16
NC(=O)NCCCNCc1ccc(-c2c[nH]c(NC(=O)Nc3ccccc3OC(F)(F)F)nc2=O)cc1 [Compound 374] | > 16
NCCCNCc1ccc(-c2c[nH]c(Nc3ccccc3C(F)(F)F)nc2=O)cc1C(F)(F)F [Compound 376] | > 16
N[C@H]1CCN(CCc2c[nH]c(NC(=O)Nc3ccccc3OC(F)(F)F)nc2=O)C1 [Compound 381] | > 16
NCCCNCc1ccc(-c2c[nH]c(Nc3ccc(C(F)(F)F)cc3)nc2=O)cc1C(F)(F)F [Compound 382] | < 16
NCCCN(CCCN)Cc1ccc(-c2c[nH]c(Nc3nc4ccccc4s3)nc2=O)cc1F [Compound 383] | > 16
NCCCN[C@@H]1CCN(CCc2c[nH]c(NC(=O)Nc3ccccc3OC(F)(F)F)nc2=O)C1 [Compound 384] | > 16
NCCCN[C@@H]1CCN(CCc2c[nH]c(NC(=O)Nc3cccc(Cl)c3Cl)nc2=O)C1 [Compound 385] | > 16
N#Cc1ccc(NC(=O)Nc2nc(=O)c(-c3ccc(CNCCCN)c(F)c3)c[nH]2)cc1 [Compound 386] | > 16
NCCCNCc1ccc(-c2c[nH]c(NC(=O)Nc3cc(Cl)cc(Cl)c3)nc2=O)cc1F [Compound 387] | > 16
NCCCNCc1ccc(-c2c[nH]c(NC(=O)Nc3cc(Cl)c(Cl)cc3Cl)nc2=O)cc1F [Compound 388] | > 16
NCCCNCc1ccc(-c2c[nH]c(NC(=O)Nc3ccc(F)c([N+](=O)[O-])c3)nc2=O)cc1F [Compound 389] | > 16
NCCCN(CCCNC(N)=O)Cc1ccc(-c2c[nH]c(NC(=O)Nc3ccccc3OC(F)(F)F)nc2=O)cc1 [Compound 394] | < 16
NC(=O)NCCCNCc1ccc(-c2c[nH]c(NC(=O)Nc3cc(F)c(F)cc3F)nc2=O)cc1 [Compound 395] | > 16
NCCCN(CCC1CC1)Cc1ccc(-c2c[nH]c(NC(=O)Nc3ccccc3OC(F)(F)F)nc2=O)cc1 [Compound 397] | > 16
N#CCCCN(CCCN)Cc1ccc(-c2c[nH]c(NC(=O)Nc3ccccc3OC(F)(F)F)nc2=O)cc1 [Compound 398] | > 16
NCCCN(CCCc1cccnc1)Cc1ccc(-c2c[nH]c(NC(=O)Nc3cc(F)c(F)cc3F)nc2=O)cc1 [Compound 399] | > 16
NCCCN(CCC1CC1)Cc1ccc(-c2c[nH]c(NC(=O)Nc3cc(F)c(F)cc3F)nc2=O)cc1 [Compound 401] | < 16
NCCCN(CCCN)Cc1ccc(-c2c[nH]c(Nc3nc4cc(C(F)(F)F)cc(Cl)c4o3)nc2=O)cc1F [Compound 403] | > 16
NCCCN(CCCN)Cc1ccc(-c2c[nH]c(Nc3nc4ccc(C(F)(F)F)cc4o3)nc2=O)cc1F [Compound 404] | > 16
NCCCN1CCN(C(=O)Cc2c[nH]c(NC(=O)Nc3ccccc3OC(F)(F)F)nc2=O)CC1 [Compound 405] | > 16
Cc1[nH]c(NC(=O)Nc2ccccc2OC(F)(F)F)nc(=O)c1CC(=O)N1CCN(CCCN)CC1 [Compound 406] | > 16
NCCCN[C@H]1CCN(C(=O)Cc2c[nH]c(NC(=O)Nc3ccccc3OC(F)(F)F)nc2=O)C1 [Compound 407] | > 16
NCCCN1CCN(C(=O)Cc2c[nH]c(NC(=O)Nc3cccc(Cl)c3Cl)nc2=O)CC1 [Compound 408] | > 16

Structure (SMILES) | MIC [µg/mL]
O=C(Nc1nc(=O)c(CC(=O)N2CCNCC2)c[nH]1)Nc1ccccc1OC(F)(F)F [Compound 409] | > 16
N[C@@H]1CCN(C(=O)Cc2c[nH]c(NC(=O)Nc3ccccc3OC(F)(F)F)nc2=O)C1 [Compound 410] | > 16
NCCCNCc1ccc(-c2c[nH]c(Nc3nc4ccccc4[nH]3)nc2=O)cc1F [Compound 412] | < 16
NCCCNCc1ccc(-c2c[nH]c(NC(=O)Nc3ccc(F)c(C(F)(F)F)c3)nc2=O)cc1F [Compound 413] | > 16
CCOc1ccc(NC(=O)Nc2nc(=O)c(-c3ccc(CNCCCN)c(F)c3)c[nH]2)c([N+](=O)[O-])c1 [Compound 414] | > 16
COc1cc([N+](=O)[O-])ccc1NC(=O)Nc1nc(=O)c(-c2ccc(CNCCCN)c(F)c2)c[nH]1 [Compound 415] | > 16
COc1ccc([N+](=O)[O-])cc1NC(=O)Nc1nc(=O)c(-c2ccc(CNCCCN)c(F)c2)c[nH]1 [Compound 416] | > 16
NCCCNCc1ccc(-c2c[nH]c(NC(=O)Nc3ccc(N4C(=O)C=CC4=O)cc3)nc2=O)cc1F [Compound 417] | > 16
NCCCNCc1ccc(-c2c[nH]c(NC(=O)Nc3cccc(-n4cccc4)c3)nc2=O)cc1F [Compound 418] | > 16
NCCCNCc1ccc(-c2c[nH]c(NC(=O)Nc3ccc(C(F)(F)F)cc3Cl)nc2=O)cc1F [Compound 419] | < 16
NCCCNCc1ccc(-c2c[nH]c(NC(=O)NCCc3ccc(Cl)cc3Cl)nc2=O)cc1F [Compound 420] | < 16
NCCCNCc1ccc(-c2c[nH]c(NC(=O)NCCc3cccc(Cl)c3)nc2=O)cc1F [Compound 421] | > 16
N=C(N)NCCCN1CCN(c2c[nH]c(NC(=O)Nc3ccccc3OC(F)(F)F)nc2=O)CC1 [Compound 422] | > 16
NCCCNCc1ccc(-c2c[nH]c(NC(=O)NCCc3ccc(Cl)cc3)nc2=O)cc1F [Compound 423] | > 16
Cc1nc(-c2cccc(NC(=O)Nc3nc(=O)c(-c4ccc(CNCCCN)c(F)c4)c[nH]3)c2)cs1 [Compound 424] | > 16
NCCCN1CCN(c2c[nH]c(NC(=O)Nc3ccccc3OC(F)(F)F)nc2=O)CC1 [Compound 425] | > 16
CCS(=O)(=O)c1ccc2oc(Nc3nc(=O)c(-c4ccc(CN(CCCN)CCCN)c(F)c4)c[nH]3)nc2c1 [Compound 427] | > 16
Cn1c(Nc2nc(=O)c(-c3ccc(CN(CCCN)CCCN)c(F)c3)c[nH]2)nc2ccccc21 [Compound 428] | > 16
N=C(N)NCCCN1CCN(C(=O)Cc2c[nH]c(NC(=O)Nc3ccccc3OC(F)(F)F)nc2=O)CC1 [Compound 429] | > 16
N=C(N)NCCCNC1CCN(c2c[nH]c(NC(=O)Nc3ccccc3OC(F)(F)F)nc2=O)C1 (stereo not drawn) [Compound 431] | > 16
NCCCNCc1ccc(-c2c[nH]c(NC(=O)Nc3ccccc3OC(F)(F)F)nc2=O)c(F)c1 [Compound 432] | < 16
NCCCNCc1ccc(-c2c[nH]c(NC(=O)Nc3cccc(Cl)c3Cl)nc2=O)c(F)c1 [Compound 433] | < 16
NCCCNCc1ccc(-c2c[nH]c(NC(=O)Nc3cc(F)c(F)cc3F)nc2=O)c(F)c1 [Compound 434] | > 16
NCCCNCc1ccc(-c2c[nH]c(NC(=O)NCCc3ccc(F)cc3)nc2=O)cc1F [Compound 435] | > 16
